Assay results taken from paper PMC11237774, “On-target, dual aminopeptidase inhibition provides cross-species antimalarial activity” (mBio, 2024).
pKi: −log10 of the molar value. Values after ≈ are worked out from the molar mass of the structure shown. Like-named read-outs stand apart in the source and are kept apart here.

Columns and labels:
[1] = system: P. falciparum Dd2 parasites; test: Fractional inhibitory concentration, artemisinin and MMV1557817 interaction; type: cell-based
Description: Fractional inhibitory concentrations (FIC) were determined as previously described ([44]). […] The FIC for each drug was determined by EC50 of drug in a mixture/EC50 of drug alone, and the sum of FIC was determined by the addition of the two individual FIC values. Synergistic FIC is described as <1, additive = 1 < 2, and antagonism > 2 ([44]).

[2] = Metabolic stability in cryopreserved hepatocytes; type: in vitro ADME; details: pH 7.4, read-out: in vitro hepatocyte CLint
Description: Samples were collected over the incubation period, quenched by the addition of an equal volume of acetonitrile, and analyzed using a Waters Acquity UPLC and Xevo G2 QTOF mass spectrometer with positive electrospray ionization under the MS^E mode. The natural log of the substrate concentration was plotted against the incubation time to determine the first-order degradation rate constant which was normalized to the microsomal protein concentration to give the in vitro intrinsic clearance (in vitro CLint, µL/min/mg microsomal protein). […] Cell viability was determined by Trypan Blue exclusion. At various times over the incubation period, samples were quenched with the addition of an equal volume of acetonitrile and analyzed as described above. Metabolite identification was conducted by accurate mass and tandem mass spectrometry (MS/MS) analysis.

[3] = Kinetic solubility by nephelometry; type: physicochemical
Description: Preliminary studies were conducted to assess the in vitro absorption, distribution, metabolism, and excretion (ADME) properties and in vivo mouse exposure of MMV1557817 following single oral dosing. Kinetic solubility was conducted using nephelometry based on a modification of a previously published method ([45]). Briefly, compound was dissolved in DMSO and spiked into either pH 6.5 phosphate buffer (to reflect the pH of the fasted state upper small intestine) or 0.01 M HCl (to reflect gastric pH 1.5–2) with a final DMSO concentration of 1% (vol/vol) and final concentrations ranging from 1 to 100 µg/mL. Samples were analyzed by nephelometry to determine the concentration above which precipitation occurred.

[4] = Plasma protein binding by ultracentrifugation; type: in vitro ADME, human; details: plasma (10% plasma diluted with PBS), pH 7.4
Description: Human plasma was obtained from the Volunteer Blood Donor Registry (Walter & Eliza Hall Institute, Melbourne, Australia), rat plasma was from male Sprague-Dawley rats (Animal Resource Centre, Perth, Western Australia) and mouse plasma was procured as described above. RPMI-1640 media supplemented with 25 mM HEPES, 2 g/L sodium bicarbonate, and 100 mg/L neomycin were additionally supplemented with 5 […] on the day prior to binding assessment. […] Additional aliquots of spiked matrix were maintained at 37°C for 4.2 h but not centrifuged to serve as controls for stability assessment and to obtain a measure of the total concentration in each matrix. Following centrifugation, aliquots of the protein-free supernatant and the non-centrifuged matrix controls were “matrix matched” by addition of an equal volume of the opposite medium (i.e., either blank buffer or blank matrix) and assayed as described above with comparison to calibration standards prepared in 50% matrix/50% PBS.

[5] = target: human aminopeptidase N (APN or CD13); design: method as in PMID 30537832; details: cited from earlier work
Plasma stability = type: in vitro ADME; details: 37°C
Description: After centrifugation, the supernatant was collected and stored at −80°C until analysis. Sample analysis was conducted using a Waters Acquity UPLC and Quattro Premier mass spectrometer operated in a positive electrospray ionization mode with multiple-reaction monitoring (transition [m/z] 395.27 > 362.28, cone voltage 20 V, CID 7 V). […] The injection volume was 3 µL, and the flow rate was 0.4 mL/min. Concentrations were determined by comparison to a calibration curve prepared in blank plasma and processed in the same way as for the samples.

P. berghei ANKA = test: P. berghei rodent malaria 4-day Peters' suppressive test; type: in vivo, P. berghei (Balb/c mice); details: 50 mg/kg oral on days 0, 1, 2, 3 post-infection, read on day 4
Description: Female Balb/c mice at 6 weeks of age in groups of 4-5 were infected intraperitoneally with 2 × 10^7 P. berghei ANKA-infected erythrocytes. […] Parasitemia was assessed by visualizing Giemsa-stained thin blood smears by microscopy and a minimum of 1,000 RBCs was counted. […] University Animal Ethics Committee.

PfA-M17 = target: T1, PfA-M17 (Plasmodium falciparum, UniProt Q8IL11); test: Recombinant aminopeptidase fluorescence assay (H-Leu-NHMec); type: biochemical, P. falciparum; details: Pf M17, Morrison equation; read-out: Ki^(app) ± SEM
T1 construct: made in house
Description: Inhibition of aminopeptidase activity assays were performed against nine aminopeptidases: the M1 alanyl and M17 leucyl aminopeptidases from P. falciparum (PfA-M1; PfA-M17), P. vivax (Pv-M1; Pv-M17), and P. berghei (Pb-M1; Pb-M17), and three human M1 homologs: LTA4H (OriGene TP307617), ERAP1 (OriGene TP314469), and ERAP2 (Creative BioMart ERAP2-304H). The Plasmodium enzymes were produced recombinantly as described previously ([16], [17]), and the human recombinant enzymes were purchased from commercial suppliers as indicated.
The concentration of H-Leu-NHMec in the assay was held constant for each enzyme and ranged from 10 to 100 µM, depending on the enzyme. Reactions were measured at 37°C in white 384-well plates in a total volume of 25 or 50 µL using a spectrofluorimeter (BMG FLUOstar) with excitation at 355 nm and emission at 460 nm. The fluorescence signal was continuously monitored until a final steady-state velocity, v, was obtained. Inhibition constants were calculated from biological triplicates made from three different protein preparations.
Substrate concentrations were selected to allow sensitive detection of enzyme activity while not exceeding the Km for each enzyme. A compound concentration range was selected to obtain a complete inhibition curve (0%–100 %) in biological triplicate. Where possible, the Ki values were calculated by plotting the initial rates versus inhibitor concentration and fitting to the Morrison equation for tight-binding inhibitors in GraphPad Prism (V.8.4.1; non-linear regression method).

HDAC5 = target: T2, HDAC5 (Homo sapiens, UniProt Q9UQL6); test: Eurofins Cerep safety pharmacology screening; type: biochemical; details: read-out: Mean % inhibition (n=2); HDAC5, 10 µM
T2 construct: Eurofins Cerep (contract screen)
Excerpt: (§1) Results showing any inhibition or stimulation higher than 50% are considered to represent significant effects of the test compounds.

MMP-2 = target: T3, MMP-2 (Homo sapiens, UniProt P08253); test: Eurofins Cerep safety pharmacology screening; type: biochemical; details: read-out: Mean % inhibition (n=2); MMP-2, 10 µM
T3 construct: Eurofins Cerep (contract screen)
Excerpt: as §1

T2 sequence (Q9UQL6 whole entry): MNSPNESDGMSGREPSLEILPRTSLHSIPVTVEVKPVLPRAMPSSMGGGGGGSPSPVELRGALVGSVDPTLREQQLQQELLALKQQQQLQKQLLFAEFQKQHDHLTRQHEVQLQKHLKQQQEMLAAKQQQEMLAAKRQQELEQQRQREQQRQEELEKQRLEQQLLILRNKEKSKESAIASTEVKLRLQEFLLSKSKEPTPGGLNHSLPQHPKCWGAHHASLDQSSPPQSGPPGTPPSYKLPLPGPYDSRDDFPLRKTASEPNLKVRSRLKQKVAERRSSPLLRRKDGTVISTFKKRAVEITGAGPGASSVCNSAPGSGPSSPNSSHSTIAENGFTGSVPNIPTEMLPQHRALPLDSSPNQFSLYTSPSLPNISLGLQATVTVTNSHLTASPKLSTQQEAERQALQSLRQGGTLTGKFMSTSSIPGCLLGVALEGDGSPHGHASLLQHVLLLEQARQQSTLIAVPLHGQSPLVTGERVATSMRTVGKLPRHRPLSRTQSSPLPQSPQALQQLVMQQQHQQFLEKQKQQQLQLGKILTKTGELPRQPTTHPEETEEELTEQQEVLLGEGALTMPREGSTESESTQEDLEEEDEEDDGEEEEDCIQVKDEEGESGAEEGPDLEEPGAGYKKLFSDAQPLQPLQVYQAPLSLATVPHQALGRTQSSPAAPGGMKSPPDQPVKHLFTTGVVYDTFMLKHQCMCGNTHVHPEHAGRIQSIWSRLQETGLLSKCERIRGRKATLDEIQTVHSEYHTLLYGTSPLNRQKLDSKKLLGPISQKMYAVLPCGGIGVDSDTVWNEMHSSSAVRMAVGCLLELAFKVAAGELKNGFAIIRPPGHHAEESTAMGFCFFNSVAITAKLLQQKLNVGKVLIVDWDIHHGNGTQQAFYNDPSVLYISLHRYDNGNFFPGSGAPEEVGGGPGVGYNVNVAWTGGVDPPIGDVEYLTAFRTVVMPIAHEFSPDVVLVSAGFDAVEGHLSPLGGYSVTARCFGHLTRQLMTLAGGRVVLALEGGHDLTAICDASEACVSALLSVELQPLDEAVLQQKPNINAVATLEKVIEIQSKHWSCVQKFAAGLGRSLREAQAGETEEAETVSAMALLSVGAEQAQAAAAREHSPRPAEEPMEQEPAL
T1 sequence (Q8IL11 84-605): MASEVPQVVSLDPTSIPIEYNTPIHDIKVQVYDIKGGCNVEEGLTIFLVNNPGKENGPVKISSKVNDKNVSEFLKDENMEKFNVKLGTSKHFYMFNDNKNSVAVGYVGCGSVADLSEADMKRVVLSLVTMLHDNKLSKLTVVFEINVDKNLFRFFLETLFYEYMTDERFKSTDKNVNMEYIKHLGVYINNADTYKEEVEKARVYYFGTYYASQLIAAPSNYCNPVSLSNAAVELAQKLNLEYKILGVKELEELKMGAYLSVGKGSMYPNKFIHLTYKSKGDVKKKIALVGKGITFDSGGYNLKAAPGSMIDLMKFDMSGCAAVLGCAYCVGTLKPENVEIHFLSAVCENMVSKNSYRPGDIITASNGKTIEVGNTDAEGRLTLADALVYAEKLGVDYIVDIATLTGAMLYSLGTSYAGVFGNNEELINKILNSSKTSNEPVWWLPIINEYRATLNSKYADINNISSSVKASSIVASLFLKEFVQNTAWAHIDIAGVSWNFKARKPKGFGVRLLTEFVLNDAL
T3 sequence (P08253 110-660): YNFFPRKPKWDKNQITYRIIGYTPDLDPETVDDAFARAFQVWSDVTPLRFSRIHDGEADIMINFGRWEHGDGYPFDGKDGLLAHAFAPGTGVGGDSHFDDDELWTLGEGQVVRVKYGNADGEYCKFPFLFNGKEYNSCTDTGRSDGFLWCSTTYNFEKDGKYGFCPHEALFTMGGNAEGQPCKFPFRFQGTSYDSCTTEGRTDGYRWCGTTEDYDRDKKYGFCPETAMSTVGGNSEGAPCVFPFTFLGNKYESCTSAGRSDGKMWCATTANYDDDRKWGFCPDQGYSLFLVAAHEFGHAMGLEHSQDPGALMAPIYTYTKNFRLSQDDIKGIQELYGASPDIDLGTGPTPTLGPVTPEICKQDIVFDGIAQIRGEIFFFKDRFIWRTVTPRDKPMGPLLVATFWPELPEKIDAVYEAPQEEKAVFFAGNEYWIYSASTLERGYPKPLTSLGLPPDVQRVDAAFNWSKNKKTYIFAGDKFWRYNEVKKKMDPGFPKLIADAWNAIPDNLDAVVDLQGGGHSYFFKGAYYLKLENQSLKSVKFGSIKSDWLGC

SMILES: CC(C)(C)CC(=O)NC(C(=O)NO)c1ccc(-c2cc(F)c(F)c(F)c2)cc1 (stereo not drawn) [MMV1557817, N-(2-(hydroxyamino)−2-oxo-1-(3′,4′,5′-trifluoro-[1,1′-biphenyl]-4-yl)ethyl)-3,3-dimethylbutanamide]
- MMV1557817 mean FIC ± SEM ([1]; ratio MMV1557817:artemisinin 1:4): 0.87 ± 0.08
- MMV1557817 mean FIC ± SEM ([1]; ratio MMV1557817:artemisinin 2:3): 1.13 ± 0.19
- MMV1557817 mean FIC ± SEM ([1]; ratio MMV1557817:artemisinin 3:2): 1.10 ± 0.20
- MMV1557817 mean FIC ± SEM ([1]; ratio MMV1557817:artemisinin 4:1): 1.05 ± 0.18
- MMV1557817 mean FIC ± SEM ([1]; ratio MMV1557817:artemisinin 5:0): 1.00 ± 0.19
- hepatocyte CLint at 1 µM ([2]; human cryopreserved hepatocytes): 2 µL/min/1e6 cells
- hepatocyte CLint at 1 µM ([2]; rat cryopreserved hepatocytes): 4 µL/min/1e6 cells
- solubility kinetic ([3]; pH 2.0 (0.01 M HCl)): 12.5 to 25 µg/mL (≈ 31.7 to 63.4 µM)
- solubility kinetic ([3]; pH 6.5 phosphate buffer): 12.5 to 25 µg/mL (≈ 31.7 to 63.4 µM)
- fraction unbound at 4.2 h ([4]; Sprague-Dawley (rat plasma), human, summary in text over the plasma species tested, read-out: bound to plasma proteins): 0.01 to 0.02
- fraction unbound at 4.2 h ([4]; human plasma, read-out: Plasma protein binding (converted)): 0.012
- pKi [5]: 6.52
- remaining at 4 h (Plasma stability; human plasma): 97%
- remaining at 4 h (Plasma stability; mouse plasma): 93%
- parasite reduction compared with vehicle control (P. berghei ANKA): 95.4%
- pKi (PfA-M17): 6.95
- inhibition at 10 µM (HDAC5): -2.8%
- inhibition at 10 µM (MMP-2): 39.8%
